Test results as given in patent US20150105252A1, “SUBSTITUTED PYRAZOLES AS HERBICIDES” (E I DU PONT DE NEMOURS AND COMPANY, priority 2013, published 2015).

How the values were obtained:
crabgrass, large = test: Test A postemergence; assay type: in vivo, Digitaria sanguinalis
How it was run: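 Ratings express plant response from 0 (no effect) to 100 (complete control), judged visually against untreated controls after approximately 10 days in the greenhouse. Preemergence applications were made as directed soil sprays onto seeded loam–sand mix, and postemergence applications onto 2–10 cm plants at one- to two-leaf stage.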

wheat [1] = test: Test C preemergence; assay type: in vivo, Triticum aestivum
Excerpt: (§1) Seeds of plant species selected from blackgrass (Alopecurus myosuroides), ryegrass, Italian (Italian ryegrass, Lolium multiflorum), wheat (winter wheat, Triticum aestivum), galium (catchweed bedstraw, Galium aparine), corn (Zea mays), crabgrass, large (large crabgrass, Digitaria sanguinalis), foxtail, giant (giant foxtail, Setaria faberii), johnsongrass (Sorghum halepense), lambsquarters (Chenopodium album), morningglory (Ipomoea coccinea), nutsedge, yellow (yellow nutsedge, Cyperus esculentus), pigweed (redroot pigweed, Amaranthus retroflexus), ragweed (common ragweed, Ambrosia elation), soybean (Glycine max), barnyardgrass (Echinochloa crus-galli), oilseed rape (Brassica napus), waterhemp (common waterhemp, Amaranthus rudis), oat, wild (wild oat, Avena fatua), kochia (Kochia scoparia), Surinam grass (Brachiaria decumbens), foxtail, green (green foxtail, Setaria viridis), goosegrass (Eleusine indica), bromegrass, downy (downy bromegrass, Bromus tectorum), nightshade (eastern black nightshade, Solanum ptycanthum), cocklebur (common cocklebur, Xanthium strumarium), cupgrass, woolly (woolly cupgrass, Eriochloa villosa), bermudagrass (Cynodon dactylon), sunflower, (common oilseed sunflower, Helianthus annuus), Russian thistle (Salsola kali), and velvetleaf (Abutilon theophrasti) were planted into a blend of loam soil and sand and treated preemergence with test chemicals formulated in a non-phytotoxic solvent mixture which included a surfactant.
(§2) At the same time, plants selected from these crop and weed species and also chickweed (common chickweed, Stellaria media), canarygrass (littleseed canarygrass, Phalaris minor), and deadnettle (henbit deadnettle, Lamium amplexicaule), were planted in pots containing Redi-Earth® planting medium (Scotts Company, 14111 Scottslawn Road, Marysville, Ohio 43041) comprising spaghnum peat moss, vermiculite, wetting agent and starter nutrients and treated with postemergence applications of test chemicals formulated in the same manner. Plants ranged in height from 2 to 18 cm (1- to 4-leaf stage) for postemergence treatments. Treated plants and controls were maintained in a greenhouse for 13 to 15 days, after which time all species were compared to controls and visually evaluated. Plant response ratings, summarized in Table C, are based on a scale of 0 to 100 where 0 is no effect and 100 is complete control. A dash (-) response means no test result.

lambsquarters [2] = test: Test C preemergence; assay type: in vivo, Chenopodium album
Excerpt: as §1, §2

velvetleaf = test: Test C preemergence; assay type: in vivo, Abutilon theophrasti
Excerpt: as §1, §2

wheat [3] = test: Test C postemergence; assay type: in vivo, Triticum aestivum; conditions: postemergence; for Wheat plant response rating: 62 g ai/ha, scale 0 to 100
Excerpt: as §1, §2

corn = test: Test C postemergence; assay type: in vivo, Zea mays; conditions: for Corn plant response rating: scale 0 to 100
Excerpt: as §1, §2

foxtail, giant = test: Test C postemergence; assay type: in vivo, Setaria faberii; conditions: for Foxtail, Giant plant response rating: scale 0 to 100
Excerpt: as §1, §2

lambsquarters [4] = test: Test C postemergence; assay type: in vivo, Chenopodium album; conditions: for Lambsquarters plant response rating: scale 0 to 100
Excerpt: as §1, §2

morningglory = test: Test C postemergence; assay type: in vivo, Ipomoea coccinea; conditions: for Morningglory plant response rating: scale 0 to 100
Excerpt: as §1, §2

kochia = test: Test C postemergence; assay type: in vivo, Kochia scoparia; conditions: for Kochia plant response rating: scale 0 to 100
Excerpt: as §1, §2

chickweed = test: Test C postemergence; assay type: in vivo, Stellaria media; conditions: for Chickweed plant response rating: scale 0 to 100
Excerpt: as §1, §2

[5] = preemergence, 31 g ai/ha, scale 0 to 100 (0 no effect, 100 complete control), 13 to 15 days
[6] = preemergence, 62 g ai/ha, 13 to 15 days, scale 0 to 100, 0 = no effect, 100 = complete control
[7] = preemergence, 125 g ai/ha, scale 0 to 100, 0 is no effect, 100 is complete control
[8] = 250 g ai/ha, scale 0 to 100 (0 no effect, 100 complete control)
[9] = 125 g ai/ha, scale 0 to 100, 0 no effect, 100 complete control
[10] = postemergence, 250 g ai/ha, scale 0 to 100 (0 no effect, 100 complete control)
[11] = postemergence, 125 g ai/ha, scale 0 to 100, 0 no effect, 100 complete control
[12] = Postemergence, 1000 g ai/ha, visual rating after approx. 10 days, 0 to 100 scale (0 no effect, 100 complete control)
[13] = postemergence, 62 g ai/ha, scale 0 to 100, 0 no effect, 100 complete control

CCONC(=O)c1cc(CC)n(Cc2cccc(OC(F)(F)F)c2)n1 [Compound 72]
Crabgrass, Large plant response rating (crabgrass, large; Postemergence, 500 g ai/ha, visual rating after approx. 10 days, 0 to 100 scale (0 no effect, 100 complete control)): 90
Crabgrass, Large plant response rating (crabgrass, large; postemergence, 125 g ai/ha, about 10 days, visual rating on 0 to 100 scale (0 no effect, 100 complete control)): 80
Plant response rating (scale of 0 to 100), Wheat (wheat [1]; Preemergence, 250 g ai/ha): 85
Wheat plant response rating (wheat [1]; [5]): 5
Plant response rating, Wheat (wheat [1]; [6]): 20
Wheat plant response rating (wheat [1]; [7]): 50
Plant response rating (scale of 0 to 100), Lambsquarters (lambsquarters [2]; Preemergence, 250 g ai/ha): 100
Lambsquarters plant response rating (lambsquarters [2]; [5]): 100
Plant response rating, Lambsquarters (lambsquarters [2]; [6]): 100
Lambsquarters plant response rating (lambsquarters [2]; [7]): 100
Plant response rating (scale of 0 to 100), Velvetleaf (velvetleaf; Preemergence, 250 g ai/ha): 100
Velvetleaf plant response rating (velvetleaf; [5]): 20
Plant response rating, Velvetleaf (velvetleaf; [6]): 100
Velvetleaf plant response rating (velvetleaf; [7]): 100
Wheat plant response rating (wheat [3]): 5
Plant response rating, Wheat (wheat [3]; [8]): 10
Plant response rating, Wheat (wheat [3]; [9]): 10
Corn plant response rating (corn; Postemergence, 31 g ai/ha): 10
Corn plant response rating (corn; postemergence, 62 g ai/ha): 10
Plant response rating, Corn (corn; [10]): 60
Plant response rating, Corn (corn; [11]): 10
Foxtail, Giant plant response rating (foxtail, giant; Postemergence, 31 g ai/ha): 5
Foxtail, Giant plant response rating (foxtail, giant; postemergence, 62 g ai/ha): 5
Plant response rating, Foxtail, Giant (foxtail, giant; [10]): 15
Plant response rating, Foxtail, Giant (foxtail, giant; [11]): 5
Lambsquarters plant response rating (lambsquarters [4]; Postemergence, 31 g ai/ha): 60
Lambsquarters plant response rating (lambsquarters [4]; postemergence, 62 g ai/ha): 70
Plant response rating, Lambsquarters (lambsquarters [4]; [10]): 98
Plant response rating, Lambsquarters (lambsquarters [4]; [11]): 90
Morningglory plant response rating (morningglory; Postemergence, 31 g ai/ha): 0
Morningglory plant response rating (morningglory; postemergence, 62 g ai/ha): 35
Plant response rating, Morningglory (morningglory; [10]): 65
Plant response rating, Morningglory (morningglory; [11]): 60
Kochia plant response rating (kochia; Postemergence, 31 g ai/ha): 10
Kochia plant response rating (kochia; postemergence, 62 g ai/ha): 25
Plant response rating, Kochia (kochia; [10]): 55
Plant response rating, Kochia (kochia; [11]): 40
Chickweed plant response rating (chickweed; Postemergence, 31 g ai/ha): 40
Chickweed plant response rating (chickweed; postemergence, 62 g ai/ha): 40
Plant response rating, Chickweed (chickweed; [10]): 80
Plant response rating, Chickweed (chickweed; [11]): 50

CCCNC(=O)c1cc(CC)n(Cc2cccc(OC(F)(F)F)c2)n1 [Compound 27]
Crabgrass, Large plant response rating (crabgrass, large; [12]): 80
Wheat plant response rating (wheat [3]): 15
Plant response rating, Wheat (wheat [3]; [8]): 20
Plant response rating, Wheat (wheat [3]; [9]): 15
Corn plant response rating (corn; Postemergence, 31 g ai/ha): 10
Plant response rating, Corn (corn; [10]): 15
Plant response rating, Corn (corn; [13]): 10
Plant response rating, Corn (corn; [11]): 15
Foxtail, Giant plant response rating (foxtail, giant; Postemergence, 31 g ai/ha): 0
Plant response rating, Foxtail, Giant (foxtail, giant; [10]): 20
Plant response rating, Foxtail, Giant (foxtail, giant; [13]): 0
Plant response rating, Foxtail, Giant (foxtail, giant; [11]): 10
Lambsquarters plant response rating (lambsquarters [4]; Postemergence, 31 g ai/ha): 50
Plant response rating, Lambsquarters (lambsquarters [4]; [10]): 65
Plant response rating, Lambsquarters (lambsquarters [4]; [13]): 50
Plant response rating, Lambsquarters (lambsquarters [4]; [11]): 50
Morningglory plant response rating (morningglory; Postemergence, 31 g ai/ha): 5
Plant response rating, Morningglory (morningglory; [10]): 75
Plant response rating, Morningglory (morningglory; [13]): 60
Plant response rating, Morningglory (morningglory; [11]): 60
Kochia plant response rating (kochia; Postemergence, 31 g ai/ha): 35
Plant response rating, Kochia (kochia; [10]): 95
Plant response rating, Kochia (kochia; [13]): 70
Plant response rating, Kochia (kochia; [11]): 80
Chickweed plant response rating (chickweed; Postemergence, 31 g ai/ha): 20
Plant response rating, Chickweed (chickweed; [10]): 75
Plant response rating, Chickweed (chickweed; [13]): 20
Plant response rating, Chickweed (chickweed; [11]): 40

CCc1cc(C(=O)NCC(F)(F)F)nn1Cc1cccc(OC(F)(F)F)c1 [Compound 20]
Crabgrass, Large plant response rating (crabgrass, large; [12]): 80
Wheat plant response rating (wheat [3]): 15
Plant response rating, Wheat (wheat [3]; [8]): 25
Plant response rating, Wheat (wheat [3]; [9]): 20
Corn plant response rating (corn; Postemergence, 31 g ai/ha): 15
Plant response rating, Corn (corn; [10]): 25
Plant response rating, Corn (corn; [13]): 20
Plant response rating, Corn (corn; [11]): 20
Foxtail, Giant plant response rating (foxtail, giant; Postemergence, 31 g ai/ha): 10
Plant response rating, Foxtail, Giant (foxtail, giant; [10]): 15
Plant response rating, Foxtail, Giant (foxtail, giant; [13]): 10
Plant response rating, Foxtail, Giant (foxtail, giant; [11]): 10
Lambsquarters plant response rating (lambsquarters [4]; Postemergence, 31 g ai/ha): 60
Plant response rating, Lambsquarters (lambsquarters [4]; [10]): 75
Plant response rating, Lambsquarters (lambsquarters [4]; [13]): 60
Plant response rating, Lambsquarters (lambsquarters [4]; [11]): 65
Morningglory plant response rating (morningglory; Postemergence, 31 g ai/ha): 10
Plant response rating, Morningglory (morningglory; [10]): 70
Plant response rating, Morningglory (morningglory; [13]): 25
Plant response rating, Morningglory (morningglory; [11]): 60
Kochia plant response rating (kochia; Postemergence, 31 g ai/ha): 90
Plant response rating, Kochia (kochia; [10]): 98
Plant response rating, Kochia (kochia; [13]): 95
Plant response rating, Kochia (kochia; [11]): 98
Chickweed plant response rating (chickweed; Postemergence, 31 g ai/ha): 45
Plant response rating, Chickweed (chickweed; [10]): 75
Plant response rating, Chickweed (chickweed; [13]): 45
Plant response rating, Chickweed (chickweed; [11]): 75
